Columns and labels:
Androgen receptor [1] = molecular target: T1, Androgen receptor (Homo sapiens, UniProt P10275); assay: Antagonist activity against pSG5-tagged human androgen receptor expressed in COS1 cells assessed as reduction in receptor-mediated transcriptional activity by AR-regulated rat probasin promoter fragment driven firefly luciferase reporter assay; type: cell-based, COS-1
T1 sequence (P10275 whole entry): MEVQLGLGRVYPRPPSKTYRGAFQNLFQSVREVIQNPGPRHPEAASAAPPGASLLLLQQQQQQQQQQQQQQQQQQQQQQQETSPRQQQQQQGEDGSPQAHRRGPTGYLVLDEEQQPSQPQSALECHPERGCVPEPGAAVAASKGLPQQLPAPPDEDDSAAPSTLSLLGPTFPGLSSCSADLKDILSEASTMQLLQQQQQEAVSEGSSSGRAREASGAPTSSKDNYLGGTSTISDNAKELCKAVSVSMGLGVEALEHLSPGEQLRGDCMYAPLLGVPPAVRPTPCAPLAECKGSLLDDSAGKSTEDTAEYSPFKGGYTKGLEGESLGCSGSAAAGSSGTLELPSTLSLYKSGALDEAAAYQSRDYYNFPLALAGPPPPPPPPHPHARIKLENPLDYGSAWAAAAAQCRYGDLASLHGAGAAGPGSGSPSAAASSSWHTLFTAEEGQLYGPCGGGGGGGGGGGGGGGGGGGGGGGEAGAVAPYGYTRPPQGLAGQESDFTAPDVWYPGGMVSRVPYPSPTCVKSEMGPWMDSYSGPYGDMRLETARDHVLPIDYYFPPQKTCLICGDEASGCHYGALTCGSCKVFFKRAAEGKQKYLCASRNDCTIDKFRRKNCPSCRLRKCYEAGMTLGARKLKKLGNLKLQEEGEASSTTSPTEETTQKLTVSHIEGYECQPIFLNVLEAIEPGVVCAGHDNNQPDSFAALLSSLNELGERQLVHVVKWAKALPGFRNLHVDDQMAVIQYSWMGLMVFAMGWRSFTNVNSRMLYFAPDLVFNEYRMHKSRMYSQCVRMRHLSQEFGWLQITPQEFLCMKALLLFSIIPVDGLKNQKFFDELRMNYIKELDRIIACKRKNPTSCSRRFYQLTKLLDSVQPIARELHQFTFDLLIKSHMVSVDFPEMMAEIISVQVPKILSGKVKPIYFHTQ

Androgen receptor [2] = molecular target: T1, Androgen receptor; assay: Displacement of [3H]R1881 from pSG5-tagged human androgen receptor expressed in COS1 cells assessed as relative binding inhibition; type: cell-based, COS-1

Row | SMILES | IC50 (Androgen receptor [1]) | IC50 (Androgen receptor [2])
1 | N#Cc1ccc(N2[C@@H]3CC[C@H]2C[C@@H](O)C3)cc1Cl | 31.7 nM | 31.7 nM
2 | N#Cc1ccc(N2C3CCC2CC(=O)C3)cc1C(F)(F)F | 66 nM | 66 nM
3 | Cc1c(N2C3CCC2CC(C)(O)C3)ccc(C#N)c1Cl (stereo unspecified) | 2.11 nM | 2.11 nM
4 | N#Cc1ccc(N2[C@H]3CC[C@H]2CC(O)C3)cc1C(F)(F)F (relative stereo) | 39.8 nM | 39.8 nM
5 | CC1(O)C[C@@H]2CC[C@@H](C1)N2c1ccc(C#N)c(C(F)(F)F)c1 (relative stereo) | 29.3 nM | 29.3 nM
6 | N#Cc1ccc(N2[C@H]3CC[C@H]2CC(NCc2ccccc2)C3)cc1C(F)(F)F (relative stereo) | 233 nM | 233 nM
7 | CS(=O)(=O)NC1C[C@@H]2CC[C@@H](C1)N2c1ccc(C#N)c(C(F)(F)F)c1 (relative stereo) | 2650 nM | 2650 nM
8 | CCS(=O)(=O)NC1C[C@@H]2CC[C@@H](C1)N2c1ccc(C#N)c(C(F)(F)F)c1 (relative stereo) | 2040 nM | 2040 nM

Reference: ChEMBL document CHEMBL3407333, “Synthesis and biological evaluation of second-generation tropanol-based androgen receptor modulators” (J Med Chem, 2015)
